Data from patent publication US8715949B2, “Applications of the binding interaction of proanthocyanidins with bacteria and bacterial components” (priority 2006, dated 2014).

How the values were obtained:
[1] = Stationary LPS-FITC binding assay on glass waveguide-immobilized PACs; parameters: species or system E. coli; conditions: patterned from 10 mg/mL solutions; LPS-FITC incubated 1 hour
Source text: To determine the ability of PAC materials to effectively bind bacteria and bacterial cell components upon immobilization to a solid support, PACs from cranberry and grape juices were covalently attached to the surface of a glass microscope slide (waveguide) using a modification of a common technique used for protein immobilization (Rowe et al., Anal. Chem., 71, 3846 (1999)). Catechin monomer and buffer only areas were also included as controls. Briefly, the waveguides, glass microscope slides (Daigger, Wheeling, Ill.), were cleaned by immersion in potassium hydroxide/methanol solution (Cras et al., Biosens. Bioelectron., 14, 683 (1999)) followed by rinsing and drying. The clean waveguides were then incubated with 2% (3-mercaptopropyl)triethoxysilane (Pierce Chemicals, Rockford, Ill.) in toluene for 45 minutes followed by rinsing and drying. The slides were immersed in 1.8 mM N-[p-maleimidophenyl]isocyanate (PMPI) in ethanol for 1 hour. The maleimide-group of PMPI reacts with the sulfhydryl-group provided by the silane reaction leaving the isocyanate-group free to react with the hydroxyl-groups of PACs. […]
The ability of the immobilized PACs to bind LPS was investigated using a stationary assay. […] Slides were imaged using evanescent wave fluorescence spectroscopy with excitation at 496 nm and emission collected above 515 nm. […]

HEK-CD14-TLR4/MD2 cells = assay: Cytotoxicity, cell proliferation assay (CellTiter96); type: cell-based, human; conditions: 48 h culture
Experimental: Cellular toxicity was measured using a […] cell proliferation assay (CellTiter96™, Promega). HEK-CD14-TLR4/MD2 cells were seeded into the wells of a 96-well plate (1×10^4 cells/well) and cultured with a dose range of test compounds for 48 h prior to assay according to the manufacturer's instructions.

[2] = tested on: HEK 293 cells stably expressing human CD14 and TLR4/MD2; assay: LPS membrane binding in HEK-CD14-TLR4/MD2 cells; type: cell-based; conditions: 25 nM LPS, 1.5 h, 37° C.; 0.5 μM PAC; antibodies 500 nM in binding sites
Experimental: Human embryonic kidney cells (HEK 293) stably expressing human CD14 and TLR4/MD2 (HEK-CD14-TLR4/MD2; Invivogen) were grown in chambered wells and incubated with 25 nM LPS (E. coli serotype 055:B5, Sigma) in the absence or presence of 0.5 μM LH20 PAC (Dial>6K) for 1.5 h at 37° C. […] After incubation, the cells were washed with PBS (10 min) twice and either fixed (with 3.7% paraformaldehyde) to assess LPS membrane binding or fixed and permeabilized (with 0.1% Triton X-100) to determine LPS internalization. After blocking with 1% normal goat serum, membrane bound or internalized LPS was detected using a goat anti-LPS antibody (O/K serotype-specific, Abeam) conjugated to fluorescein. Nuclei were counterstained with DAPI. Imaging was performed using an Olympus IX-71 microscope. The relative amounts of membrane-associated or intracellular fluorescence were quantified by image analysis using Image J software (NIH, v. 1.37). Data is reported as the mean channel fluorescence from membrane-associated or internalized LPS and represents the analysis of 10 to 20 cells from each sample (minimum 10 measurements per each cell). Merged images were produced using Photoshop CS2 (ver. 9).

[3] = Pull-down of FITC-LPS by PAC beads after equilibration with lipid A; type: binding, E. coli; conditions: lipid A concentrations as high as 100 μM
Experimental: Fluorescence-based pull down assays for lipopolysaccharide (LPS) were conducted in 50 mM TRIS at pH 8.0 using Sepharose-immobilized PACs and agarose-immobilized polymyxin B (Sigma-Aldrich, St. Louis, Mo.). Immobilized capture molecules and LPS were incubated at room temperature for 1 hour with constant agitation followed by rinsing and transfer to a 96-well plate. The fluorescence of the FITC-labeled LPS (from E. coli 055:B5; Sigma-Aldrich) was measured using a Tecan XSafire monochrometer-based micro plate reader at 495 nm excitation and 520 nm emission (5 nm bandwidths).
To further investigate this potential interaction, an assay for the presence of FITC-LPS using PAC-beads was conducted after equilibration of the PAC beads with varying concentrations of lipid A (FIG. 11). Assays were conducted with 3 μg/mL FITC-LPS (approx. 3 nM).

Row | Substance | binding of LPS-FITC by substance immobilized on glass waveguide [1] | concentrations at which toxicity was not elicited (HEK-CD14-TLR4/MD2 cells) | decrease in membrane-bound LPS [2] | inhibition of FITC-LPS binding by immobilized PACs at high lipid A concentration [3] [%]
1 | catechin | no binding even at the highest concentrations tested | – | – | –
2 | diphosphoryl lipid A | – | below 3 μM | did not significantly reduce LPS membrane binding | ≤ 80
